Patent publication US11702707B2, “Systems and methods for assessing contamination of drinking water” (priority 2011, dated 2023)

System: HepG2 cells
Test: FACTORIAL transcription factor signature assay (reporter transcription units) in a test cell system
Assay type: cell-based, human

Compound | most affected reporter transcription units (transcription factor signature) (24 hours after exposure) | other results
O=Cc1c2[nH]c3ccccc3c2cc2[nH]c3ccccc3c12 [6-formylindolo-[3,2-b]carbazole] | – | specific pathway shown by fluorescence peak manifestation (transcription factor signature) (HepG2 cells, after 24 hours exposure): Ahryloxane receptor (AhR)
[Cl][Cd][Cl] [cadmium dichloride] | – | reporter elements with most pronounced cellular response (transcription factor signature) (24 hours after exposure, 2.5 μM, 0.6 μM, 0.16 μM and 0.04 μM): most pronounced for the metallothionein response element (MRE) and the heat shock-response element (HSE)
lipopolysaccharide [endotoxin (lipopolysaccharide, LPS)] | NF-kappaB and Interferon-specific response element (ISRE) | –
triphenyltin | cellular heat shock response element (HSE), the peroxisome proliferator activating protein (PPAR) and the oxidative stress-specific RTU, NRF-2/ARE | –
